Measured values published in US20080279866A1, “Induction of immunosuppression by inhibition of ATM” (The Brigham and Women's Hospital, Inc., priority 2006, published 2008).

What was measured:
alloreactive T cells = assay: Cytokine production of alloreactive T cells stimulated with alloantigen; assay type: cell-based; details: treated with ATM inhibiting agent in addition to alloantigen; preliminary data
C57BL/6 T cells [1] = assay: Stimulation of T cells with anti-CD3 and CD28 in the presence of KU-55933 (annexin-V/CFSE flow cytometry); assay type: cell-based, mouse
Protocol: Cells were then labeled for 20 minutes with 2 μM 5(6)-Carboxyfluorescein diacetate N-succinimidyl ester (CFSE, Sigma-Aldrich) in Hank's balanced salt solution (HBSS, Mediatech, Herndon, Va.). Cells were plated at a concentration of 2-5×10^6/ml in Dulbecco's modified eagle's medium (DMEM (Mediatech) supplemented with 15% heat-inactivated fetal calf serum (Sigma-Aldrich, St. Louis, Mo.), penicillin (100 U/ml), streptomycin (100 μg/ml), 2 mM L-glutamine, 10 mM Hepes, 0.1 mM nonessential amino acids, 1 mM sodium pyruvate (Mediatech) (complete DMEM). Cells were treated with 1 μg/ml anti-CD3 antibody (2C11 (30)) and 1 μg/ml anti-CD28 antibody (37.51, Gross, et al., J. Immunol. 149:380 (1992)). Cells were cultured at 37 C, 5% CO2 for the indicated time. For studies of Atm−/− T cell proliferation in response to mitogens, purified T cells were cultured with 2 μg/ml Concanavalin A or 10 ng/ml PMA and 1 μg/m ionomycin.
Stimulation of T cells in the Presence of KU-55933: T cells were purified from C57BL/6 mice (Jackson Laboratories) and re-suspended at 1.5×10^6 cells/ml in complete DMEM with 1 μg/10^6 cells anti-CD3 and CD28 and the indicated concentration of KU-55933 (KuDos Pharmaceuticals) or the same volume of DMSO (Sigma-Aldrich). Some cultures were in addition treated with 4 mM N-acetyl cysteine (Sigma-Aldrich).
Flow Cytometry: Cells were harvested, washed in HBSS and stained with Annexin-V phycoerythrin (BD Biosciences), or Annexin V-biotin (R&D Systems) in addition to streptavidin conjugated phycoerythrin according to the manufacturer's instructions. Cells were then stained with anti-CD4-APC (RM4-5, BD Biosciences) or anti-CD8-APC (53-6.7 BD Biosciences) and 7-actinomycin D (Sigma-Aldrich) or propidium iodide (Sigma-Aldrich). All analysis was performed using. FloJo software (TreeStar Inc).

[2] = system: ATM targets including p53, H2AX and NBS1; details: cited from earlier work
[3] = system: other PI-3 kinase-like kinase family members; details: cited from earlier work
[4] = system: graft vs. host disease (GVHD); assay: GVHD after BMT: lethally irradiated Balb/c mice given C57BL/6 bone marrow and treated splenocytes; assay type: in vivo, mouse
Protocol: To test this, Balb/c mice were lethally irradiated one day prior to BMT with C57BL/6 bone marrow. 48 Hours after BMT, mice received splenocytes treated with allogeneic stimulators, allogeneic stimulators and KU55933, or no stimulators and KU55933.

ATR = ATR (Homo sapiens, UniProt Q13535); details: 3 mM caffeine; cited from earlier work
ATM = ATM (Homo sapiens, UniProt Q13315); details: cited from earlier work
C57BL/6 T cells [5] = assay: Stimulation of T cells with anti-CD3 and CD28 in the presence of caffeine (annexin-V/CFSE flow cytometry); assay type: cell-based, mouse
Protocol: Cells were then labeled for 20 minutes with 2 μM 5(6)-Carboxyfluorescein diacetate N-succinimidyl ester (CFSE, Sigma-Aldrich) in Hank's balanced salt solution (HBSS, Mediatech, Herndon, Va.). Cells were plated at a concentration of 2-5×10^6/ml in Dulbecco's modified eagle's medium (DMEM (Mediatech) supplemented with 15% heat-inactivated fetal calf serum (Sigma-Aldrich, St. […] Cells were treated with 1 μg/ml anti-CD3 antibody (2C11 (30)) and 1 μg/ml anti-CD28 antibody (37.51, Gross, et al., J. Immunol. 149:380 (1992)). […] For studies of Atm−/− T cell proliferation in response to mitogens, purified T cells were cultured with 2 μg/ml Concanavalin A or 10 ng/ml PMA and 1 μg/m ionomycin. Stimulation of T cells in the Presence of Caffeine: […] Some cultures were, in addition, treated with 2 mM N-acetyl cysteine (Sigma-Aldrich). Flow Cytometry: Cells were harvested, washed in HBSS and stained with Annexin-V phycoerythrin (BD Biosciences), or Annexin V-biotin (R&D Systems) in addition to streptavidin conjugated phycoerythrin according to the manufacturer's instructions. Cells were then stained with anti-CD4-APC (RM4-5, BD Biosciences) or anti-CD8-APC (53-6.7 BD Biosciences) and 7-actinomycin D (Sigma-Aldrich) or propidium iodide (Sigma-Aldrich). All analysis was performed using. FloJo software (TreeStar Inc).

Atm deficient T cells = assay: Stimulation of Atm deficient T cells with anti-CD3 and CD28 with or without NAC; assay type: cell-based, mouse; details: 2 mM NAC
From the text: Mice: Heterozygous 129S6/SvEvTac-Atm^tm1-Awb mice […] were purchased from the Jackson Laboratory (Bar Harbor, Me.). An independently generated Atm knockout mouse model was used to confirm our observations (Borghesani, et al., Proc. Nat'l Acad. Sci. USA 97:3336 (2000)). All mice were housed under microisolator conditions in autoclaved cages and were maintained on irradiated feed and autoclaved acidified drinking water. All sentinel mice housed in the same colony were free of viral antibodies. Four- to 6-week-old mice were used in all experiments.
Purification and Stimulation of T Cells: Splenocytes were harvested from 4-6 week old Atm−/− mice or wild-type littermates bred in our animal facility. In some experiments C57BL/6 mice were used as a source of wild-type T cells. Red blood cells were lysed using ACK lysing buffer (Cambrex, Walkerville, Md.) for 3 minutes at room temperature. In experiments in which T cells were purified, splenocytes were incubated with anti-CD4 (GK1.5, Dialynas, et al., J. Immunol. 131:2445 (1983)) and anti-CD8 (2.43, Sarmiento, et al., J. Immunol. 125:2665 (1980)) antibodies for 30 min at 4° C. Cells were then washed and incubated with magnetic beads conjugated to anti-rat IgG antibody, prior to positive selection by MACS according to the manufacturer's instructions (Miltenyi Biotech, USA Auburn Calif.). […]

[6] = C57BL/6 T cells stimulated with anti-CD3 and CD28

ATM, sequence (Q13315 whole entry, species assumed): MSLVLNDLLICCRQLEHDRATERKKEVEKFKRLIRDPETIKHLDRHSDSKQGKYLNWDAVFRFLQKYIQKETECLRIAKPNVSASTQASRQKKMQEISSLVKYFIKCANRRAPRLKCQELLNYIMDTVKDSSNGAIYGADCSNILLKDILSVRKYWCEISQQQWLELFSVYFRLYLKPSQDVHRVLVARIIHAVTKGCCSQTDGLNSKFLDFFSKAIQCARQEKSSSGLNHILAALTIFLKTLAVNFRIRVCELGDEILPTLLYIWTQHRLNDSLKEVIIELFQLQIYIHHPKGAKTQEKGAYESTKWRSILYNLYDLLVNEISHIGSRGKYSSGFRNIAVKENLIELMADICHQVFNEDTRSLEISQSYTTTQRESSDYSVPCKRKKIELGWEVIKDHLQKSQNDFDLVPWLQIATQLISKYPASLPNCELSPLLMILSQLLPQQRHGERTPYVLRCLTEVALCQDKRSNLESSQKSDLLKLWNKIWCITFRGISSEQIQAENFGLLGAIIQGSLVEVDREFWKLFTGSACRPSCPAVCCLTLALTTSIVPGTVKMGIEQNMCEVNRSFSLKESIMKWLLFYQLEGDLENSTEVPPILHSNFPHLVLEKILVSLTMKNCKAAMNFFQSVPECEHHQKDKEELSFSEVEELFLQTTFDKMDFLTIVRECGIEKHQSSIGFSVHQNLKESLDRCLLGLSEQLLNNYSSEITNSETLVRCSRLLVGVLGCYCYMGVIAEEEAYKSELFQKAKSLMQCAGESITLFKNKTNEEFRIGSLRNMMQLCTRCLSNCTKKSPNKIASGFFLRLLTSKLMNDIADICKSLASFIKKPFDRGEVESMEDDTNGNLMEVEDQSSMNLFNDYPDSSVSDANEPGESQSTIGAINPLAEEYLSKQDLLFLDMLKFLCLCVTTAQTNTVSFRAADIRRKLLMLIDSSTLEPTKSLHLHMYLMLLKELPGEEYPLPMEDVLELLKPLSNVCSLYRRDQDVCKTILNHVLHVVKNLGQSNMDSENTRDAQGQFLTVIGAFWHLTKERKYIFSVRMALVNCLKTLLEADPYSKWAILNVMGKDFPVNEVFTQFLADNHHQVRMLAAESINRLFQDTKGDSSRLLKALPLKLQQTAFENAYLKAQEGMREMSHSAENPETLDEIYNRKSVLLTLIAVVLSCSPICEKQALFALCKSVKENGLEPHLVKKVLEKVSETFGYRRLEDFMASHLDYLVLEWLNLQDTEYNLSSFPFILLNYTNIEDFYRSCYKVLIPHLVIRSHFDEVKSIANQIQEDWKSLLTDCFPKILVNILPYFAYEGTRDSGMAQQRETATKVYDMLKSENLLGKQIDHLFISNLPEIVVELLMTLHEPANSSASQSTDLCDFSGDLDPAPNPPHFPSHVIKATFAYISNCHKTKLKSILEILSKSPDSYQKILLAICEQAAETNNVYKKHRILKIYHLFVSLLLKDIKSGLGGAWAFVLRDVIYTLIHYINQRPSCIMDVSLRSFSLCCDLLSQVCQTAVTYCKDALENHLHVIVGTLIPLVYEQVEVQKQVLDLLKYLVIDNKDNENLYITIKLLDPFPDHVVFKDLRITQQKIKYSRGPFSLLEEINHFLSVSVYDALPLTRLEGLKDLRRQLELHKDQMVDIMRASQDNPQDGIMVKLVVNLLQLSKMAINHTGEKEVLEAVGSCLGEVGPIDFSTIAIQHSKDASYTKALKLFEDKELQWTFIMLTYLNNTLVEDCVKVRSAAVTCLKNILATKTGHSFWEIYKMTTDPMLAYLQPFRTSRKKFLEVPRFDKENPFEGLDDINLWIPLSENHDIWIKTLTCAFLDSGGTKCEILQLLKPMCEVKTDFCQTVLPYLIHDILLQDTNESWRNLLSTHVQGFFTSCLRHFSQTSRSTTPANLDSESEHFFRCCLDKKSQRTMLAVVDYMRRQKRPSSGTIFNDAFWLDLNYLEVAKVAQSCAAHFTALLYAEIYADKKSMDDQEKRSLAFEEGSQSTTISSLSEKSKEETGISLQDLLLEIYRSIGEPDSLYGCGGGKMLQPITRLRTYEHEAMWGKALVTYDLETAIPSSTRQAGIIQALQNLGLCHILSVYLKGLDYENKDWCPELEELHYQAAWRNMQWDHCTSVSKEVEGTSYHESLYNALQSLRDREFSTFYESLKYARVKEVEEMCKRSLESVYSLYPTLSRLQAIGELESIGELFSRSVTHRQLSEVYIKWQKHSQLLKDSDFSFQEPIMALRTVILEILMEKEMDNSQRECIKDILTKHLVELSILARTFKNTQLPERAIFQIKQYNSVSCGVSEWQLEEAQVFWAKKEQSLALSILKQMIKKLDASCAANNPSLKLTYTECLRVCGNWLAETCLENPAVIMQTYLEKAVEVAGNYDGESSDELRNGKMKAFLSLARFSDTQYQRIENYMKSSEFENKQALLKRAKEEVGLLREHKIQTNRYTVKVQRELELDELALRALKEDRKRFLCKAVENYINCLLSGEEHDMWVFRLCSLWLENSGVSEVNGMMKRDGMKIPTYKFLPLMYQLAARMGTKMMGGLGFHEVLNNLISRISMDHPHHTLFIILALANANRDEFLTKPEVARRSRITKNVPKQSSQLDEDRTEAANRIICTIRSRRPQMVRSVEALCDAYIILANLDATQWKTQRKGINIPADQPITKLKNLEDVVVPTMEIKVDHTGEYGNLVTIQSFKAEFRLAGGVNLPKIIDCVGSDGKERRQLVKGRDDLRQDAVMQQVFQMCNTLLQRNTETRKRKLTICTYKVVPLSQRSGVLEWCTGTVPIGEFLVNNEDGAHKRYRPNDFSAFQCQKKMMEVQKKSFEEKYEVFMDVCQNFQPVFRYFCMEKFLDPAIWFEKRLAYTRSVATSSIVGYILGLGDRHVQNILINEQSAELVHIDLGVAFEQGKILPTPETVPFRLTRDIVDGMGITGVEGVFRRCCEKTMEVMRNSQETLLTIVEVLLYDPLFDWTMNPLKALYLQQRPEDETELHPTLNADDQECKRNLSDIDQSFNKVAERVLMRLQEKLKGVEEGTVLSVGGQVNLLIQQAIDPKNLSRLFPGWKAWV

For `O=c1cc(-c2cccc3c2Sc2ccccc2S3)oc(N2CCOCC2)c1` [KU-55933, 2-morpholin-4-yl-6-thianthren-1-yl-pyran-4-one], the “production of IL-2, IFN-g and IL-4 in response to alloantigen” value (alloreactive T cells) was “fail to produce these cytokines”, the “T cell proliferation versus untreated controls” value (C57BL/6 T cells [1]; 20 μM KU-55933, 48 and 72 hours after stimulation) was “significantly less proliferation” and the “effect on cell viability” value (C57BL/6 T cells [1]; 20 μM KU-55933, 24 hours, anti-CD3 and CD28) was “no effect”. The “KU-55933 concentration (as low as) that induced T cell apoptosis” value (C57BL/6 T cells [1]; [6]) was 10 µM, the “response of normal T cells exposed to anti-CD3 and anti-CD28” value (C57BL/6 T cells [1]; exposed to KU-55933) was “undergo apoptosis” and the “frequency of T cells undergoing apoptosis with increasing concentration” value (C57BL/6 T cells [1]; increasing KU-55933 concentration, anti-CD3 and CD28) was “dose dependent increase”. For the same compound, the “ionizing-radiation-dependent phosphorylation of known ATM targets” value [2] was “abrogation”, the “inhibition of other PI-3 kinase-like kinase family members” value [3] was “does not inhibit” and the animals surviving long-term ([4]; recipients of splenocytes treated ex vivo with allogeneic stimulators and KU55933, given 48 hours after BMT) was “three out of four”. The “development of GVHD (time)” value ([4]; recipients of unstimulated splenocytes treated with KU55933) was 30 to 40 days.
In the case of `Cn1c(=O)c2c(ncn2C)n(C)c1=O` [caffeine], the “inhibition of ATR function” value (ATR) is listed as 50%, the “ATM function in vitro” value (ATM; 1 mM caffeine) is listed as “inhibit ATM” and the “inhibition of ATM function” value (ATM; 3 mM caffeine) is listed as 50%. The “T cells remaining annexin-V negative” value (C57BL/6 T cells [5]; 2.5 mM caffeine, 48 and 72 hours after stimulation) was “only T cells which did not divide remained annexin-V negative”, the “effect on cell viability” value (C57BL/6 T cells [5]; 2.5 mM caffeine, 24 hours, anti-CD3 and CD28) was “no effect” and the “caffeine concentration (as low as) that induced T cell apoptosis” value (C57BL/6 T cells [5]; [6]) was 1 mM. For the same compound, the “response of normal T cells exposed to anti-CD3 and anti-CD28” value (C57BL/6 T cells [5]; exposed to caffeine) was “undergo apoptosis” and the “frequency of T cells undergoing apoptosis with increasing concentration” value (C57BL/6 T cells [5]; increasing caffeine concentration, anti-CD3 and CD28) was “dose dependent increase”.
With `CC(=O)N[C@@H](CS)C(=O)O` [NAC, N-acetyl cysteine] the “proliferation of Atm deficient T cells, effect of NAC” value (Atm deficient T cells) was “restored the ability of Atm deficient T cells to undergo proliferation”, the “apoptosis induced in the presence of KU-55933, effect of NAC” value (C57BL/6 T cells [1]; NAC added (4 mM per method), 20 μM KU-55933, anti-CD3 and CD28, normal T cells) was “prevented” and the “apoptosis induced in the presence of caffeine, effect of NAC” value (C57BL/6 T cells [5]; 2 mM NAC added, 2.5 mM caffeine, anti-CD3 and CD28, normal T cells) was “prevented”.
